From patent publication US20050220837A1, “Antimicrobial hyaluronic acid coatings for orthopedic implants” (priority 2003, published 2005)

System: hTERT cells
Assay: cytotoxicity of chlorhexidine on viability/adhesion of hTERT cells (Calcein AM / Ethidium homodimer)
Assay type: cell-based, human
Conditions: 24 h
Experimental: A separate experiment was carried out to measure the cytotoxicity of different chlorhexidine concentrations on the viability/adhesion of hTERT cells. hTERT cells were cultured as described above onto Thermanox discs in four well plates, but the DMEM with 10% FCS was inoculated with 0.1%, 1% or 10% chlorhexidine. Two control discs were also included containing just DMEM with 10% FCS, one disc was in the same plate as the chlorhexidine samples and the other in a separate four well plate. Plates were incubated at 37° C. for 24 h, before the media was removed and 1 ml DMEM (no FCS) containing 1 μl/ml Calcein AM (reacts with live cells) and 1 μl/ml Ethidium homodimer (reacts with dead cells) was added. The plates were incubated at 37° C. in the dark for a further 30 minutes, then the Thermanox discs were imaged using a Zeiss Epifluorescence microscope. Live well spread cells were seen on the sample not exposed to chlorhexidine, while dead cells were observed on the surface cultured in the same plate as samples exposed to chlorhexidine.

[H]/N=C(\N/C(=N/[H])NCCCCCCNC(=N)NC(=N)Nc1ccc(Cl)cc1)Nc1ccc(Cl)cc1 [chlorhexidine]
hTERT cells on Thermanox disc after exposure (0.1% chlorhexidine in DMEM with 10% FCS): No cells were seen
hTERT cells on Thermanox disc after exposure (1% chlorhexidine in DMEM with 10% FCS): No cells were seen
